Test results as given in article PMC10050424, “Structural basis of the substrate recognition and inhibition mechanism of Plasmodium falciparum nucleoside transporter PfENT1” (Nature Communications, 2023).
Several values for one entry are separate records, joined by “and”; a condition that tells them apart may be missing. Equal values may be shown once.

Tests used:
PfENT1 mutant D287A = biological target: T1, PfENT1 mutant D287A (Plasmodium falciparum, UniProt Q8IDM6, D287A); assay: ITC binding to PfENT1 mutant D287A; settings: Fig. 3c
T1 construct: 10xHis (N); made in house; host or cells: Sf9 insect cells (baculovirus)
T1 sequence (Q8IDM6 1-422 D287A): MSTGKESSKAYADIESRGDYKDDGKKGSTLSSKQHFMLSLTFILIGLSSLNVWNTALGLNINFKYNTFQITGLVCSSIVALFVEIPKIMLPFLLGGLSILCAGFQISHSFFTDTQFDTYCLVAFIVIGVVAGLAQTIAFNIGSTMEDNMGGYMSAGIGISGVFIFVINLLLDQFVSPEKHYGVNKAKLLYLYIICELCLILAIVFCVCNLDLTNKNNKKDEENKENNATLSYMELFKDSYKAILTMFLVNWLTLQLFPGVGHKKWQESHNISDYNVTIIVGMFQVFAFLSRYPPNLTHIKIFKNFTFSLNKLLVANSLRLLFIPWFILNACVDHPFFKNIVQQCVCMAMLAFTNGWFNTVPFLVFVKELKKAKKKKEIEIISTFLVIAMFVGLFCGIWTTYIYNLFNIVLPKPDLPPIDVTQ
Description: For the in vitro binding assay, Sf9 cells were solubilized in lysis buffer containing 2% (w/v) n-dodecyl-β-D-maltopyranoside (DDM, Anatrace) and protease inhibitor cocktail (0.8 μM aprotinin, 2 μM pepstatin, and 5 μg/ml leupeptin) at 4 °C for 2 h. The soluble supernatant was collected via centrifugation and incubated with Ni-NTA resin (QIAGEN) at 4 °C for 1 h. The resin was washed and eluted using lysis buffer containing 0.05% (w/v) DDM and 30 mM/300 mM imidazole. The protein was further purified by size-exclusion chromatography (Superdex 200 Increase 10/300; GE Healthcare) in buffer containing 25 mM MES (pH 6.0), 150 mM NaCl, and 0.05% (w/v) DDM. The peak fractions were pooled and concentrated to 10~50 μM for the nucleoside-binding assay.
The binding affinity between wild-type and mutant PfENT1 with nucleosides and GSK4 was measured using a Micro-Cal ITC200 (Malvern). All proteins were prepared in 25 mM MES (pH 6.0), 150 mM NaCl, and 0.05% (w/v) DDM. Nucleosides (5~10 mM) and GSK4 (100-200 μM) dissolved in the same buffer were titrated against 20–50 μM PfENT1 proteins at 25 °C. PEAQ-ITC analysis software (MicroCal) was employed to analyze the data. All titrations were repeated three times.

PfENT1 = biological target: T2, PfENT1 (Plasmodium falciparum, UniProt Q8IDM6); assay: cell-based; type: cell-based; settings: for uptake of inosine: time course, PfENT1 knock-in yeast
T2 construct: expressed in transfected cells; host or cells: S. cerevisiae BY4741, FUI1 deleted, PfENT1 knock-in under the TEF1 promoter
Description: The S. cerevisiae strain (ATCC, #201388) BY4741 (MATa his3Δ1 leu2Δ0 met15Δ0 ura3Δ0) was used as the starting yeast strain. Yeast strains were cultured in YPD medium (20 g/L peptone, 10 g/L yeast extract, and 20 g/L dextrose). The antibiotic G418 was supplemented at a concentration of 250 μg/mL to select strains carrying the KanMX marker. E. coli DH5α was used for subcloning.
(§1) Codon-optimized PfENT1 (for expression in yeast) was synthesized by Sangon Biotech. The carboxyl terminus of PfENT1 was HA-tagged through PCR. The TEF1p promoter and PGK1t terminator were amplified from BY4741 genomic DNA. Overlap PCR was applied to generate the gene overexpression cassette of PfENT1 (TEF1p promoter-PfENT1-PGK1t terminator). The two 600-bp homologous arms corresponding to the upstream and downstream regions of the FUI1 gene were amplified from BY4741 genomic DNA. The gene cassette of the ‘TEF1p promoter-PfENT1-PGK1t terminator’ together with the two homologous arms was cloned into the PUC19 plasmid through Gibson assembly, generating the final plasmid PUC19: PfENT1. PfENT1 mutations were generated using point mutation and verified by Sanger sequencing. The spacer targeting the FUI1 gene (5ʹ-[…]-3ʹ) was cloned into the pCas-BsaI plasmid to generate the pCas-FUI1 plasmid as described previously.
To obtain fui1Δ and PfENT1 (or its mutations) overexpression in the S. cerevisiae strain, 1 μg pCas-FUI1 plasmid and 15 μg PUC19:PfENT1 were transformed into yeast using the LiAc/ssDNA/PEG method. Then, the strains were plated on a YPD plate supplemented with G418. Clones were screened using PCR and finally verified through Sanger sequencing.
Cells were grown overnight in YPD medium to mid-log phase and harvested by centrifugation at 3000 × g for 5 min. Cells were washed three times in 2% glucose. The yeast pellets were resuspended in uptake assay buffer (25 mM Tris-HCl 8.0,150 mM NaCl, 2% glucose) to a final concentration of 2 × 10^8 cells mL^–1. The uptake assay was initiated by combining 100 μL of prewarmed (30 °C) cells and 100 μL uptake assay buffer mixture: 25 mM Tris-HCl 8.0, 150 mM NaCl, 2% glucose, 200 nM [^3H] Inosine ([8-^3H] inosine; 20 Ci mmol^–1, American Radiolabeled Chemicals). Cells were removed onto a membrane filter at the appropriate times to generate the time course. After washing by vacuum filtration with 2 ml ice-cold 2% glucose, the radioactivity retained on the filter was incubated with 1 mL of ULTIMA GOLD scintillation fluid (Perkin Elmer, 77-15311). Counts were measured using a liquid scintillation analyzer (Perkin Elmer, Tri-Carb 5110TR).
For competition assays, the indicated nucleosides and nucleobase were added into the external uptake assay buffer (25 mM Tris-HCl 8.0, 150 mM NaCl, and 2% glucose) to a final concentration of 5 mM, and the transport reaction was stopped at 30 min. The reading of the competition assays was normalized against the one without a competitor, which had the uptake of radiolabeled inosine set as 100%. All uptake assays were performed at 30 °C and repeated three times. Error bars represent the s.d. The final result was analyzed in the GraphPad Prism 8 software ([…]).

PfENT1 Q135A = biological target: T3, PfENT1 Q135A (Plasmodium falciparum, UniProt Q8IDM6, Q135A); assay: Inosine uptake assay, yeast expressing PfENT1 Q135A; type: cell-based; settings: Fig. 3d, construct Q135A
T3 construct: expressed in transfected cells; host or cells: S. cerevisiae BY4741, FUI1 deleted, PfENT1 mutant knock-in under the TEF1 promoter
Description: as §1, with “previously. […]” for “previously.”
(§2) Cells were grown overnight in YPD medium to mid-log phase and harvested by centrifugation at 3000 × g for 5 min. […] After washing by vacuum filtration with 2 ml ice-cold 2% glucose, the radioactivity retained on the filter was incubated with 1 mL of ULTIMA GOLD scintillation fluid (Perkin Elmer, 77-15311). Counts were measured using a liquid scintillation analyzer (Perkin Elmer, Tri-Carb 5110TR). […]

PfENT1 W53A = biological target: T4, PfENT1 W53A (Plasmodium falciparum, UniProt Q8IDM6, W53A); assay: Inosine uptake assay, yeast expressing PfENT1 W53A; type: cell-based; settings: Fig. 3d, construct W53A
T4 construct: expressed in transfected cells; host or cells: S. cerevisiae BY4741, FUI1 deleted, PfENT1 mutant knock-in under the TEF1 promoter
Description: as §1, with “previously. […]” for “previously.”
as §2

T2 sequence (Q8IDM6 whole entry): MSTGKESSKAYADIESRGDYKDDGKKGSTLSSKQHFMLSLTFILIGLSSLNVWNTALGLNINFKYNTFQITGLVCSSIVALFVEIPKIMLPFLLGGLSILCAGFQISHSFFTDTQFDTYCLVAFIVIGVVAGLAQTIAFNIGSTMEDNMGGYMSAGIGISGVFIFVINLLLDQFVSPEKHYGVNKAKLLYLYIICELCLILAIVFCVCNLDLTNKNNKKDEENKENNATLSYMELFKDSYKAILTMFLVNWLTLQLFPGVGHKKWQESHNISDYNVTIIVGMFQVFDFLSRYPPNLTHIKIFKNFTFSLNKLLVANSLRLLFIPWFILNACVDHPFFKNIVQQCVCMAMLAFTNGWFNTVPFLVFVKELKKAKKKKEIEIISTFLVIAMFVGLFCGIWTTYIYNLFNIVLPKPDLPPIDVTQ
T3 sequence (Q8IDM6 whole entry Q135A): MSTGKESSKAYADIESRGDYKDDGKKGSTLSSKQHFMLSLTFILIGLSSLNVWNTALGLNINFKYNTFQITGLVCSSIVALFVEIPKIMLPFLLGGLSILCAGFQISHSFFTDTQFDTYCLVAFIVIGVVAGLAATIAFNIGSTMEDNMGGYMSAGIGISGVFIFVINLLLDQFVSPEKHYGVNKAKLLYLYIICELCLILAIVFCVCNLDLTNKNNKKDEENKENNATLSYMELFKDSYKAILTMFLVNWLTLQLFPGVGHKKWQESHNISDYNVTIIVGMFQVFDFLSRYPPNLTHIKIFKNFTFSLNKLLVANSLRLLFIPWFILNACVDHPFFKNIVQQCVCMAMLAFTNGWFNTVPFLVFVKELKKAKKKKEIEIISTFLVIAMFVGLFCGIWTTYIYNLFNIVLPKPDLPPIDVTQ
T4 sequence (Q8IDM6 whole entry W53A): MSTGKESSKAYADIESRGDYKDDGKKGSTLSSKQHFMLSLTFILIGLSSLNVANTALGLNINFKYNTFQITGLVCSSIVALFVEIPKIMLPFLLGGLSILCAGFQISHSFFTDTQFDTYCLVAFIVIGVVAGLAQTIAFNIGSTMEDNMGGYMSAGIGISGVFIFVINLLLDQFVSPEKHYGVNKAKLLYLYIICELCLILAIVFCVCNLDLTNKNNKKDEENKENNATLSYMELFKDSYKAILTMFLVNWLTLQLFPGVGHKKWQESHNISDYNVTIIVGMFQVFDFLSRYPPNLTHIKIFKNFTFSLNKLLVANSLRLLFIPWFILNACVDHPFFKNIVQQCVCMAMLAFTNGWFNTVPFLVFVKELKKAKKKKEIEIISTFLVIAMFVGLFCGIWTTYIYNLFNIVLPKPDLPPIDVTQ

Structure (SMILES): OC[C@H]1O[C@@H](n2cnc3c(O)ncnc32)[C@H](O)[C@@H]1O [Inosine, inosine]
- binding affinity (Kd) (PfENT1 mutant D287A): completely lost inosine binding
- remaining activity at 5000 µM (PfENT1; 0.5 h, read-out: Uptake of [3H]-inosine (Percentage of PfENT1 WT), competition by nonradioactive nucleoside/nucleobase 5 mM, 30 min, 30 °C, uptake without competitor set as 100%, Fig. 1c): 11%
- Uptake of [3H]-inosine (Percentage of PfENT1 WT) (PfENT1; competition by nonradioactive nucleoside/nucleobase 5 mM, 30 min, 30 °C, uptake without competitor set as 100%, Fig. 1c): abolished
- uptake of inosine (PfENT1; time 1 (min), 3 independent experiments): 0.8242 fmol per million cells and 1.048 fmol per million cells and 1.269 fmol per million cells
- uptake of inosine (PfENT1; time 5 (min)): 1.492 fmol per million cells and 1.522 fmol per million cells and 1.615 fmol per million cells
- uptake of inosine (PfENT1; time 10 (min)): 2.864 fmol per million cells and 2.823 fmol per million cells and 2.628 fmol per million cells
- uptake of inosine (PfENT1; time 20 (min)): 4.048 fmol per million cells and 4.1747 fmol per million cells and 4.441 fmol per million cells
- uptake of inosine (PfENT1; time 30 (min)): 5.946 fmol per million cells and 6.16 fmol per million cells and 6.198 fmol per million cells
- uptake of inosine (PfENT1; time 45 (min)): 10.3307 fmol per million cells and 9.87 fmol per million cells and 9.474 fmol per million cells
- uptake of inosine (PfENT1; time 60 (min)): 11.051 fmol per million cells and 11.1951 fmol per million cells and 11.2042 fmol per million cells
- Uptake of [3H]-inosine (Percentage of PfENT1 WT) (PfENT1 Q135A): abolished the transport activity
- Uptake of [3H]-inosine (Percentage of PfENT1 WT) (PfENT1 W53A): abolished the transport activity
